Our source for the ED50 and LD50 values is patent US4827004A, “Isoprene derivatives” (Hoffmann-La Roche Inc., priority 1986, dated 1989).

Like-named read-outs stand apart in the source and are kept apart here.

The subject of data set [1] is gastric acid secretion. Kind of data set: gastric acid secretion-inhibiting activity (pylorus ligation according to Shay et al.). The following applies: Rattus norvegicus, read-out: Gastric acid secretion-inhibition, ID 50. It is filed as in vivo, male rats. On the procedure:
The test procedure described hereinafter was used to determine the gastric acid secretion-inhibiting activity:
The pylorus of male rats is ligated under slight ether narcosis in accordance with Shay et al. [Gastroenterology 5, 43 (1945)]. The substances to be tested, suspended in 0.5% carboxymethylcellulose, are administered intraduodenally. Control animals are treated only with the vehicle. Five hours after the ligation the animals are killed, the volume and acidity of their gastric juice are determined and the values obtained are compared with those of control animals. The ID50 is that dosage of a test substance which brings about a 50% decrease of the secretion in comparison to the control animals.
(§1) In the following Table there are given for a series of representative compounds of formula I the results of the testing with respect to their mucosa-protective activity ("ethanol test") and to their gastric acid secretion-inhibiting activity. Moreover, this Table contains data concerning the acute toxicity (LD50 in the case of single oral administration to mice).

In data set [2] the test system is mucous membrane of the stomach. Kind of data set: ethanol test (mucosa-protective activity; ethanol-induced gastric lesions). It is filed as in vivo, male rats. The following applies: Rattus norvegicus, po, read-out: Ethanol Test ID 50. On the procedure: The experimental procedure described hereinafter was used to determine the muscosa-protective property:
The oral administration of absolute ethanol to male rats in a dosage of 1 ml per rat leads within 1 hour to bloody lesions of the mucous membrane of the stomach. Various dosages of the substances to be tested (suspended in 0.125% carboxymethylcellulose) or of the vehicle alone (control) are administered to the rats orally (1 ml per rat) 30 minutes prior to the treatment with ethanol. One hour after the administration of the ethanol the animals are killed, their stomachs are investigated for the presence of lesions and the number and the total dimension of such lesions are determined. The ID50 is that dosage of a test substance which reduces by 50% the number of lesions in comparison to the control group.
as §1

Data set [3] is described as follows: acute toxicity (single oral administration). The following applies: mouse, in vivo, read-out: Toxicity LD 50.
From the text: Representative compounds of formula I were investigated with respect to their mucosa-protective and gastric acid secretion-inhibiting properties as well as to their toxicity.
as §1

Setting [4] is: intraduodenal, 5 hours after pylorus ligation, 50% decrease of secretion vs control, male rats.
Where [5] appears, read: 30 minutes before ethanol, dosage reducing number of lesions by 50% vs control, male rats.
The mark [6] stands for this setting: p.o., single oral administration to mice.

For the compound `C=C(C)C(=O)CC/C(C)=C/CC/C(C)=C/C=NO` (mixture of isomers) [T, (2E,6E)-3,7,11-trimethyl-10-oxo-2,6,11-dodecatrienal (E/Z)-oxime], the ED50 in data set [1] (setting [4]) is 9.3 mg/kg; in data set [2] (setting [5]), 7.8 mg/kg.
Regarding `C#CC(CC/C(C)=C/CC/C(C)=C/CO)=NOC` (mixture of isomers) [U, (6E,10E)-12-hydroxy-6,10-dimethyl-6,10-dodecadien-1-yn-3-one (E/Z)-O-methyl oxime], the values for the ED50 in data set [1] (setting [4]) and in data set [2] (setting [5]) were 43.9 mg/kg and 7.9 mg/kg, respectively. Further, in data set [3] (po), the LD50 lay in the range of 1000 to 2000 mg/kg.
As to `CC=CC(O)CC/C(C)=C/CC/C(C)=C/CO` (mixture of isomers) [V, (2E,6E,11(E/Z))-3,7-dimethyl-2,6,11-tridecatriene-1,10-diol], the ED50 came out at 57.4 mg/kg in data set [1] (setting [4]) and 9.3 mg/kg in data set [2] (setting [5]).
Consider `C#CC(=O)CC/C(C)=C/CC/C(C)=C/CO` [A, (all-E)-12-hydroxy-6,10-dimethyl-6,10-dodecadien-1-yn-3-one], for which the ED50 was 2 mg/kg in data set [1] (setting [4]) and 0.55 mg/kg in data set [2] (setting [5]). For the same compound, the LD50 in data set [3] (po) lay in the range of 1000 to 2000 mg/kg.
In the case of `C=CC(=O)CC/C(C)=C/CC/C(C)=C/CO` [B, (all-E)-12-hydroxy-6,10-dimethyl-1,6,10-dodecatrien-3-one], the results for the ED50 in data set [1] (setting [4]) and in data set [2] (setting [5]) were 68.2 mg/kg and 0.62 mg/kg, respectively.
On to `CC#CC(=O)CC/C(C)=C/CC/C(C)=C/CO` [C, (all-E)-13-hydroxy-7,11-dimethyl-7,11-tridecadien-2-yn-4-one], for which the ED50 in data set [1] (setting [4]) is 80.3 mg/kg; in data set [2] (setting [5]), 0.78 mg/kg. In addition, the LD50 in data set [3] (po) was 1000 to 2000 mg/kg.
For `C/C=C/C(=O)CC/C(C)=C/CC/C(C)=C/CO` [D, (all-E)-13-hydroxy-7,11-dimethyl-2,7,11-tridecatrien-4-one], the ED50 worked out at 66 mg/kg in data set [1] (setting [4]) and 0.79 mg/kg in data set [2] (setting [5]). The LD50 in data set [3] (po) lay within 1000 to 2000 mg/kg.
As to `C#CC(CC/C(C)=C/CC/C(C)=C/CO)(OCC)OCC` [E, (all-E)-10,10-diethoxy-3,7-dimethyl-2,6-dodecadien-11-yn-1-ol], the ED50 in data set [1] (setting [4]) worked out at 18.4 mg/kg; in data set [2] (setting [5]) it was 0.93 mg/kg.
Turning to `C=C(C)C(=O)CC/C(C)=C/CC/C(C)=C/CO` [F, (all-E)-12-hydroxy-2,6,10-trimethyl-1,6,10-dodecatrien-3-one], the ED50 in data set [1] (setting [4]) turned out to be 27.7 mg/kg; in data set [2] (setting [5]), 1.3 mg/kg. The LD50 in data set [3] (po) is 625 to 1250 mg/kg.
For the compound `C=C(C)C(=O)CC/C(C)=C/CC/C(C)=C/C=O` [G, (all-E)-10-oxo-3,7,11-trimethyl-2,6,11-dodecatrienal], the results for the ED50 in data set [1] (setting [4]) and in data set [2] (setting [5]) were 62.4 mg/kg and 1.8 mg/kg, respectively. Also, the LD50 in data set [3] (po) lay within 1000 to 2000 mg/kg.
In the case of `C=C(C)C(=O)CC/C(C)=C\CC/C(C)=C\CO` [H, (6Z,10Z)-12-hydroxy-2,6,10-trimethyl-1,6,10-dodecatrien-3-one], the figures for the ED50 in data set [1] (setting [4]) and in data set [2] (setting [5]) were 57.7 mg/kg and 1.8 mg/kg, respectively. In data set [3] (setting [6]), the LD50 lay in the range of 2500 to 5000 mg/kg.
As for `C=C(C)C1(CC/C(C)=C/CC/C(C)=C/CO)OCCO1` [I, (all-E)-3,7-Dimethyl-9-[2-(1-methylvinyl)-1,3-dioxolan-2-yl]-2,6-nonadien-1-ol], the ED50 in data set [1] (setting [4]) was determined as 13.2 mg/kg; in data set [2] (setting [5]), 2.7 mg/kg. Also, the LD50 in data set [3] (po) was over 4000 mg/kg.
For `C=C(C)C(=O)CC/C(C)=C/CC/C(C)=C/C(N)=O` [J, (E,E)-3,7,11-trimethyl-10-oxo-2,6,11-dodecatrienamide], the ED50 worked out at 63.9 mg/kg in data set [1] (5 h) and 3.4 mg/kg in data set [2]. Besides, the LD50 in data set [3] (setting [6]) was in the range of 1000 to 2000 mg/kg.
As for `CC(C)=CC(=O)CC/C(C)=C/CC/C(C)=C/CO` [K, (all-E)-13-hydroxy-2,7,11-trimethyl-2,7,11-tridecatrien-4-one], the ED50 came to 60.8 mg/kg in data set [1] (setting [4]) and 3.6 mg/kg in data set [2] (setting [5]).
Take `C=C(C)C(=O)CC/C(C)=C/CC/C(C)=C\CO` [L, (6E,10Z)-12-hydroxy-2,6,10-trimethyl-1,6,10-dodecatrien-3-one]: the figures for the ED50 in data set [1] (setting [4]) and in data set [2] (setting [5]) were 73.4 mg/kg and 4.4 mg/kg, respectively. For the same compound, in data set [3] (setting [6]), the LD50 lay in the range of 625 to 1250 mg/kg.
Take `C=C(C)C(=O)CC/C(C)=C\CC/C(C)=C/CO` [M, (6Z,10E)-12-hydroxy-2,6,10-trimethyl-1,6,10-dodecatrien-3-one]: the ED50 turned out to be 62.7 mg/kg in data set [1] (setting [4]) and 4.5 mg/kg in data set [2] (setting [5]). In addition, the LD50 in data set [3] (setting [6]) lay in the range of 2500 to 5000 mg/kg.
As to `C=C(C)C(O)CC/C(C)=C/CC/C(C)=C/CO` (stereo not drawn) [N, (all-E)-3,7,11-trimethyl-2,6,11-dodecatriene-1,10-diol], the ED50 in data set [1] (setting [4]) worked out at 41.6 mg/kg; in data set [2] (setting [5]), 3.2 mg/kg. For the same compound, the LD50 in data set [3] (po) was over 2000 mg/kg.
For `C=C(C)C(O)CC/C(C)=C/CC/C(C)=C/C(=O)O` (stereo not drawn) [O, (all-E)-10-hydroxy-3,7,11-trimethyl-2,6,11-dodecatrienoic acid] the same measures were 48.8 mg/kg, 26.8 mg/kg and 1250 to 2500 mg/kg.
For `C=C(C)C(=O)CC/C(C)=C/CC/C(C)=C/C(=O)O` [P, (all-E)-10-Oxo-3,7,11-trimethyl-2,6,11-dodecatrienoic acid] the same measures were 79.6 mg/kg, 5 mg/kg and 1250 to 2500 mg/kg.
The matching figures for `C=C(C)C(CC/C(C)=C/CC/C(C)=C/CO)(OC)OC` [Q, (all-E)-10,10-dimethoxy-3,7,11-trimethyl-2,6,11-dodecatrien-1-ol]: 4.7 mg/kg, 5.3 mg/kg and over 5000 mg/kg.
On to `C=C(C)C(O)CC/C(C)=C/CC/C(C)=C/C=O` (stereo not drawn) [R, (all-E)-10-hydroxy-3,7,11-trimethyl-2,6,11-dodecatrienal], for which the ED50 in data set [1] (setting [4]) was 28.6 mg/kg; in data set [2] (setting [5]), 6.4 mg/kg. Besides, the LD50 in data set [3] (po) was over 5000 mg/kg.
For the compound `C/C(=C\CO)CC/C=C(\C)CCC(=O)C#C[Si](C)(C)C` [S, (all-E)-12-hydroxy-6,10-dimethyl-1-(trimethylsilyl)-6,10-dodecadien-1-yn-3-one], the figures for the ED50 in data set [1] (5 h) and in data set [2] were 46.9 mg/kg and 6.5 mg/kg, respectively.
